From patent publication US20210401809A1, “PHARMACEUTICAL COMPOUNDS” (Sareum Limited, priority 2016, published 2021)

How the values were obtained:
[1] = system: TYK2 dependent cell lines (T-ALL cells); settings: Sanda et al.; cited from earlier work
[2] = system: CCRF-CEM cells (TYK2-dependent T-ALL); test: Cell proliferation assay (ATPlite, 7 days); format: cell-based; settings: Homo sapiens, 168 h
Method: (§1) Jurkat, MOLT-4, CCRF-CEM and CCRF-HSB-2 cells are all TYK2-dependent T-ALL cells. Loucy cells are TYK2-independent T-ALL cell lines. Dexamethasone, Etoposide and Paclitaxel were used as positive controls. Compound effects were studied 7 days after compound addition […] Luminescent product was detected using a BMG FLUOstar plate reader. • The data were analysed using a 4-parameter logistic equation in GraphPad Prism.

[3] = system: CCRF-HSB-2 cells (TYK2-dependent T-ALL); test: Cell proliferation assay (ATPlite, 7 days); format: cell-based; settings: Homo sapiens, CCRF-HSB-2, 168 h
Method: as §1

[4] = system: Loucy cells (TYK2-independent T-ALL); test: Cell proliferation assay (ATPlite, 7 days); format: cell-based; settings: 168 h
Method: as §1

[5] = system: Jurkat cells (TYK2-dependent T-ALL); test: Cell proliferation assay (ATPlite, 7 days); format: cell-based; settings: Homo sapiens, 168 h
Method: as §1

[6] = system: MOLT-4 cells (TYK2-dependent T-ALL); test: Cell proliferation assay (ATPlite, 7 days); format: cell-based; settings: Homo sapiens, MOLT-4, 168 h
Method: as §1

[7] = molecular target: T1, TYK2 kinase (Homo sapiens, UniProt P29597); test: In vitro enzyme inhibition, 33P-ATP filter kinase assay (Reaction Biology); format: biochemical
T1 construct: 833-1187; GST (N); purchased Reaction Biology Corp. (contract assay); host or cells: Baculovirus in Sf21 insect cells
T1 sequence (P29597 833-1187): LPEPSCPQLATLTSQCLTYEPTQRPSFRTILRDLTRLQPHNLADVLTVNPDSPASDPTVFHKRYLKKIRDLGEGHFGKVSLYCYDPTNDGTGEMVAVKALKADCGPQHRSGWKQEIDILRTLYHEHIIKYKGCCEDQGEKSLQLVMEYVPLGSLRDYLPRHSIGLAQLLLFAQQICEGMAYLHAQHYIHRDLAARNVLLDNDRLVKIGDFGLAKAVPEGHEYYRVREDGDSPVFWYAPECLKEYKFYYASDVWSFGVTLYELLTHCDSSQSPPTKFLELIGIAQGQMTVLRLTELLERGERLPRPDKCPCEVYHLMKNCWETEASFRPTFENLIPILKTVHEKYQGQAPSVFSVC
Method: (§2) Compounds of the invention were assayed for their ability to inhibit TYK2 kinase and other JAK kinases.
(§3) Substrates and kinases used in the assays are identified in Table 2 below.
(§4) JAK3tide=[Ac-[…]-NH2]

[8] = molecular target: T2, JAK3 (Homo sapiens, UniProt P52333); test: as above; format: biochemical
T2 construct: 781-1124; GST (N); purchased Reaction Biology Corp. (contract assay); host or cells: Baculovirus in Sf21 insect cells
T2 sequence (P52333 781-1124): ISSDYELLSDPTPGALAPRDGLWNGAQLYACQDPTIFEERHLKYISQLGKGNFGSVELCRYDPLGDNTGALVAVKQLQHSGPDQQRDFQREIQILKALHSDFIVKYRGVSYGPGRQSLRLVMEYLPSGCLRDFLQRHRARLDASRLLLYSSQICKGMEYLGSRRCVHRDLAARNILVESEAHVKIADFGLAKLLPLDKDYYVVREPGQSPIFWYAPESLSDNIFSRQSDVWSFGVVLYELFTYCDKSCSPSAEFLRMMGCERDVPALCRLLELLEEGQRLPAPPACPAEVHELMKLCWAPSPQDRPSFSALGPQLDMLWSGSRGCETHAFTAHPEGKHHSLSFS
Method: as §2, §3, §4

[9] = molecular target: T3, JAK1 (Homo sapiens, UniProt P23458); test: as above; format: biochemical
T3 construct: 866-1154; GST (N); purchased Reaction Biology Corp. (contract assay); host or cells: Baculovirus in Sf21 insect cells
T3 sequence (P23458 866-1154): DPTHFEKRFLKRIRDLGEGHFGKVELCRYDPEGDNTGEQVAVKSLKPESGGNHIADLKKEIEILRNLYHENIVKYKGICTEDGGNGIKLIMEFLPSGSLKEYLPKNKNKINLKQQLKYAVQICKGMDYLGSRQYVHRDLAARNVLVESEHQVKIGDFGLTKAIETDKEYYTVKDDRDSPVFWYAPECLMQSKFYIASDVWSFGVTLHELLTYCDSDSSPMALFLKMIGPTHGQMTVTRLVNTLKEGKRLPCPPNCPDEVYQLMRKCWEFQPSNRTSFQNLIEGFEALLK
Method: as §2, §3, §4

[10] = molecular target: T4, JAK2 (Homo sapiens, UniProt O60674); test: as above; format: biochemical
T4 construct: 809-1132; GST (N); '+g'; purchased Reaction Biology Corp. (contract assay); host or cells: Baculovirus in Sf21 insect cells
T4 sequence (O60674 809-1132): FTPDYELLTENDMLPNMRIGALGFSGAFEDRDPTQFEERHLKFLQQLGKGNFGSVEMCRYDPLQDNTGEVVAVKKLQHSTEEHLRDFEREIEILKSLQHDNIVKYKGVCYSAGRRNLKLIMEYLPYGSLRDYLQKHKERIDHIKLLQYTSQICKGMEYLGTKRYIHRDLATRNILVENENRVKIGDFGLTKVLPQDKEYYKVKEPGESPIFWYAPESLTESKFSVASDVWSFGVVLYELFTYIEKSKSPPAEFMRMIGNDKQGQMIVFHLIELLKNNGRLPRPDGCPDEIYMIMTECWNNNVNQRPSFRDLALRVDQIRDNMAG
Method: as §2, §3

| IC50 [3] | IC50 [7] | IC50 [8] | IC50 [9] | IC50 [10] | SMILES | further results |
| --- | --- | --- | --- | --- | --- | --- |
| – | – | – | – | – | C[C@@H]1CCN(C(=O)CC#N)C[C@@H]1N(C)c1ncnc2[nH]ccc12 [CP-690550] | effect against the T-ALL cells [1]: ineffective |
| 17 µM | – | – | – | – | CS(=O)(=O)c1ccc(Nc2oc(-c3c(Cl)cccc3Cl)nc2C(N)=O)cc1 [Compound 19, 2-(2,6-dichloro-phenyl)-5-(4-methanesulfonyl-phenylamino)-oxazole-4-carboxylic acid amide] | inhibition at 30 µM ([2]; 30 μM, read-out: Cell proliferation inh. @ 30 μM, CCRF-CEM): 34%; IC50 [4]: 20 µM; inhibition at 30 µM ([5]; 30 μM, read-out: Cell proliferation inh. @ 30 μM, Jurkat): 8%; IC50 [6]: 12 µM |
| 2.8 µM | – | – | – | – | CS(=O)(=O)c1ccc(Nc2oc(-c3c(F)cccc3Cl)nc2C(N)=O)cc1 [Compound 20, 2-(2-chloro-6-fluoro-phenyl)-5-(4-methanesulfonyl-phenylamino)-oxazole-4-carboxylic acid amide] | IC50 [2]: 8.9 µM; IC50 [4]: 3.9 µM; IC50 [5]: 2.1 µM; IC50 [6]: 3.1 µM |
| – | 1.89 nM | 240 nM | 63.3 nM | 61.9 nM | NC(=O)c1nc(-c2c(F)cccc2Cl)oc1Nc1ccc(C(=O)N[C@H]2CCCNC2)cc1 [Compound 23, (S) 2-(2-chloro-6-fluoro-phenyl)-5-[4-(piperidin-3-ylcarbamoyl)-phenylamino]-oxazole-4-carboxylic acid amide] | – |
| – | 5.11 nM | 167 nM | 157 nM | 125 nM | NC(=O)c1nc(-c2c(F)cccc2Cl)oc1Nc1ccc(C(=O)N[C@@H]2CCCNC2)cc1 [Compound 24, (R) 2-(2-chloro-6-fluoro-phenyl)-5-[4-(piperidin-3-ylcarbamoyl)-phenylamino]-oxazole-4-carboxylic acid amide] | – |
| – | 2.98 nM | 132 nM | 100 nM | 87.8 nM | CN1CCC(NC(=O)c2ccc(Nc3oc(-c4c(F)cccc4Cl)nc3C(N)=O)cc2)CC1 [Compound 26, 2-(2-chloro-6-fluoro-phenyl)-5-[4-(1-methyl-piperidin-4-ylcarbamoyl)-phenylamino]-oxazole-4-carboxylic acid amide] | – |
| – | 1.21 nM | 233 nM | 72.2 nM | 93.3 nM | NC(=O)c1nc(-c2c(Cl)cccc2Cl)oc1Nc1ccc(C(=O)N[C@H]2CCCNC2)cc1 [Compound 27, (S) 2-(2,6-dichloro-phenyl)-5-[4-(piperidin-3-ylcarbamoyl)-phenylamino]-oxazole-4-carboxylic acid amide] | – |
| – | 1.77 nM | 194 nM | 108 nM | 122 nM | NC(=O)c1nc(-c2c(Cl)cccc2Cl)oc1Nc1ccc(C(=O)N[C@@H]2CCCNC2)cc1 [Compound 28, (R) 2-(2,6-dichloro-phenyl)-5-[4-(piperidin-3-ylcarbamoyl)-phenylamino]-oxazole-4-carboxylic acid amide] | – |
| – | 1.52 nM | 164 nM | 83.4 nM | 106 nM | CN1CCC(NC(=O)c2ccc(Nc3oc(-c4c(Cl)cccc4Cl)nc3C(N)=O)cc2)CC1 [Compound 30, 2-(2,6-dichloro-phenyl)-5-[4-(1-methyl-piperidin-4-ylcarbamoyl)-phenylamino]-oxazole-4-carboxylic acid amide] | – |
| – | 4.41 nM | 390 nM | 222 nM | 213 nM | CCS(=O)(=O)c1ccc(Nc2oc(-c3c(F)cccc3F)nc2C(N)=O)cc1 [Compound 31, 2-(2,6-difluoro-phenyl)-5-(4-ethanesulfonyl-phenylamino)-oxazole-4-carboxylic acid amide] | – |
| – | 5.47 nM | 516 nM | 135 nM | 153 nM | CC(C)S(=O)(=O)c1ccc(Nc2oc(-c3c(F)cccc3F)nc2C(N)=O)cc1 [Compound 33] | – |
| 49 µM | – | – | – | – | C[C@@H]1C[C@H]2[C@@H]3CCC4=CC(=O)C=C[C@]4(C)[C@@]3(F)[C@@H](O)C[C@]2(C)[C@@]1(O)C(=O)CO [Dexamethasone, reference compound] | IC50 [2]: 59 µM; inhibition at 10 µM ([4]; 10 μM, read-out: Cell proliferation inh. @ 10 μM, Loucy): 25%; inhibition at 10 µM ([5]; 10 μM, read-out: Cell proliferation inh. @ 10 μM, Jurkat): 5%; inhibition at 10 µM ([6]; 10 μM, read-out: Cell proliferation inh. @ 10 μM, MOLT-4): 21% |
| 4.7 µM | – | – | – | – | COc1cc([C@@H]2c3cc4c(cc3[C@@H](O[C@@H]3O[C@@H]5CO[C@@H](C)O[C@H]5[C@H](O)[C@H]3O)[C@H]3COC(=O)[C@H]23)OCO4)cc(OC)c1O [Etoposide, reference compound] | IC50 [2]: 17 µM; IC50 [4]: 33 µM; IC50 [5]: 94 µM; IC50 [6]: 7.7 µM |
| 1.3 µM | – | – | – | – | CC(=O)O[C@H]1C(=O)[C@@]2(C)[C@H]([C@H](OC(=O)c3ccccc3)[C@]3(O)C[C@H](OC(=O)[C@H](O)[C@@H](NC(=O)c4ccccc4)c4ccccc4)C(C)=C1C3(C)C)[C@]1(OC(C)=O)CO[C@@H]1C[C@@H]2O [Paclitaxel, reference compound] | IC50 [2]: 4.4 µM; IC50 [4]: 2.2 µM; IC50 [5]: 1.8 µM; IC50 [6]: 0.66 µM |
